How the values were obtained:
Format in all cases: functional
RXF 393 = test: Cytotoxicity against human RXF393 cells assessed as cell growth level at 100 uM after 48 hrs by sulforhodamine B assay
PC-3 = test: Cytotoxicity against human PC3 cells assessed as cell growth level at 100 uM after 48 hrs by sulforhodamine B assay
MCF7 [1] = test: Cytotoxicity against human MCF7 cells assessed as cell growth level at 100 uM after 48 hrs by sulforhodamine B assay
BT-549 [2] = test: Cytotoxicity against human BT549 cells assessed as cell growth level at 100 uM after 48 hrs by sulforhodamine B assay
NCI-H23 [3] = test: Cytotoxicity against human NCI-H23 cells assessed as cell growth level at 10 nM after 48 hrs by sulforhodamine B assay
HT-29 = test: Cytotoxicity against human HT-29 cells assessed as cell growth level at 10 nM after 48 hrs by sulforhodamine B assay
SNB-75 [4] = test: Cytotoxicity against human SNB75 cells assessed as cell growth level at 10 nM after 48 hrs by sulforhodamine B assay
Malme-3M = test: Cytotoxicity against human MALME-3M cells assessed as cell growth level at 10 nM after 48 hrs by sulforhodamine B assay
UACC-62 = test: Cytotoxicity against human UACC62 cells assessed as cell growth level at 10 nM after 48 hrs by sulforhodamine B assay
OVCAR-5 = test: Cytotoxicity against human OVCAR5 cells assessed as cell growth level at 10 nM after 48 hrs by sulforhodamine B assay
T47D = test: Cytotoxicity against human T47D cells assessed as cell growth level at 10 nM after 48 hrs by sulforhodamine B assay
MDA-MB-468 = test: Cytotoxicity against human MDA-MB-468 cells assessed as cell growth level at 10 nM after 48 hrs by sulforhodamine B assay
NCI-H226 = test: Cytotoxicity against human NCI-H226 cells assessed as cell growth level at 100 nM after 48 hrs by sulforhodamine B assay
NCI-H23 [5] = test: Cytotoxicity against human NCI-H23 cells assessed as cell growth level at 100 nM after 48 hrs by sulforhodamine B assay
NCI-H522 [6] = test: Cytotoxicity against human NCI-H522 cells assessed as cell growth level at 100 nM after 48 hrs by sulforhodamine B assay
SW-620 = test: Cytotoxicity against human SW620 cells assessed as cell growth level at 100 nM after 48 hrs by sulforhodamine B assay
SNB-75 [7] = test: Cytotoxicity against human SNB75 cells assessed as cell growth level at 100 nM after 48 hrs by sulforhodamine B assay
[8] = Cytotoxicity against human NCI-ADR-RES cells assessed as cell growth level at 100 nM after 48 hrs by sulforhodamine B assay
A498 = test: Cytotoxicity against human A498 cells assessed as cell growth level at 100 nM after 48 hrs by sulforhodamine B assay
SN12C = test: Cytotoxicity against human SN12C cells assessed as cell growth level at 100 nM after 48 hrs by sulforhodamine B assay
UO-31 = test: Cytotoxicity against human UO31 cells assessed as cell growth level at 100 nM after 48 hrs by sulforhodamine B assay
CCRF-CEM = test: Cytotoxicity against human CCRF-CEM cells assessed as cell growth level at 10 uM after 48 hrs by sulforhodamine B assay
K562 [9] = test: Cytotoxicity against human K562 cells assessed as cell growth level at 10 uM after 48 hrs by sulforhodamine B assay
RPMI-8226 = test: Cytotoxicity against human RPMI8226 cells assessed as cell growth level at 10 uM after 48 hrs by sulforhodamine B assay
K562 [10] = test: Cytotoxicity against human K562 cells assessed as cell growth level at 1 uM after 48 hrs by sulforhodamine B assay
MOLT-4 = test: Cytotoxicity against human MOLT4 cells assessed as cell growth level at 1 uM after 48 hrs by sulforhodamine B assay
NCI-H322M = test: Cytotoxicity against human NCI-H322M cells assessed as cell growth level at 10 uM after 48 hrs by sulforhodamine B assay
NCI-H460 = test: Cytotoxicity against human NCI-H460 cells assessed as cell growth level at 10 uM after 48 hrs by sulforhodamine B assay
HCT-116 = test: Cytotoxicity against human HCT116 cells assessed as cell growth level at 10 uM after 48 hrs by sulforhodamine B assay
SNB-19 = test: Cytotoxicity against human SNB19 cells assessed as cell growth level at 10 uM after 48 hrs by sulforhodamine B assay
SK-OV-3 = test: Cytotoxicity against human SKOV3 cells assessed as cell growth level at 10 uM after 48 hrs by sulforhodamine B assay
MCF7 [11] = test: Cytotoxicity against human MCF7 cells assessed as cell growth level at 10 uM after 48 hrs by sulforhodamine B assay
U-251 = test: Cytotoxicity against human U251 cells assessed as cell growth level at 1 uM after 48 hrs by sulforhodamine B assay
IGROV-1 = test: Cytotoxicity against human IGROV1 cells assessed as cell growth level at 1 uM after 48 hrs by sulforhodamine B assay
OVCAR-8 = test: Cytotoxicity against human OVCAR8 cells assessed as cell growth level at 1 uM after 48 hrs by sulforhodamine B assay
786-0 = test: Cytotoxicity against human 786-0 cells assessed as cell growth level at 1 uM after 48 hrs by sulforhodamine B assay
HL-60(TB) [12] = test: Cytotoxicity against human HL-60(TB) cells assessed as cell growth level at 100 uM after 48 hrs by sulforhodamine B assay
NCI-H522 [13] = test: Cytotoxicity against human NCI-H522 cells after 48 hrs by sulforhodamine B assay; conditions: NCI-H522, 48 h
HCC 2998 = test: Cytotoxicity against human HCC2998 cells assessed as cell growth level at 100 uM after 48 hrs by sulforhodamine B assay
KM12 = test: Cytotoxicity against human KM12 cells assessed as cell growth level at 100 uM after 48 hrs by sulforhodamine B assay
SF-539 = test: Cytotoxicity against human SF539 cells assessed as cell growth level at 100 uM after 48 hrs by sulforhodamine B assay
BT-549 [14] = test: Cytotoxicity against human BT549 cells after 48 hrs by sulforhodamine B assay; conditions: BT-549, 48 h
HL-60(TB) [15] = test: Cytotoxicity against human HL-60(TB) cells assessed as cell growth level at 10 nM after 48 hrs by sulforhodamine B assay
HOP-62 = test: Cytotoxicity against human HOP62 cells assessed as cell growth level at 10 nM after 48 hrs by sulforhodamine B assay

In the case of `O=c1oc2ccccc2cc1-c1csc(N/N=C/c2c[nH]c3ccccc23)n1`, the Activity (RXF 393) is reported as -6%, the Activity (PC-3) is reported as -20% and the Activity (MCF7 [1]) is reported as -60%. The Activity (BT-549 [2]) was -88%, the Activity (NCI-H23 [3]) was 86% and the Activity (HT-29) was 106%. The Activity (SNB-75 [4]) was 94%, the Activity (Malme-3M) was 100% and the Activity (UACC-62) was 95%. For the same compound, the Activity (OVCAR-5) was 102%, the Activity (T47D) was 101% and the Activity (MDA-MB-468) was 94%. The Activity (NCI-H226) was 104%, the Activity (NCI-H23 [5]) was 88% and the Activity (NCI-H522 [6]) was 107%. The Activity (SW-620) was 95%, the Activity (SNB-75 [7]) was 90% and the Activity [8] was 110%. The Activity (A498) was 96%, the Activity (SN12C) was 90% and the Activity (UO-31) was 91%. For the same compound, the Activity (CCRF-CEM) was -26.91%, the Activity (K562 [9]) was 0.99% and the Activity (RPMI-8226) was -33.83%. For the same compound, the Activity (K562 [10]) was 100%, the Activity (MOLT-4) was 20% and the Activity (NCI-H322M) was 15.29%. The Activity (NCI-H460) was 5.79%, the Activity (HCT-116) was 7.48% and the Activity (SNB-19) was 39.43%. It also gave an Activity (SK-OV-3) of 62.24%, an Activity (MCF7 [11]) of 8.91% and an Activity (U-251) of 103%. For the same compound, the Activity (IGROV-1) was 58%, the Activity (OVCAR-8) was 94% and the Activity (786-0) was 80%. For the same compound, the Activity (HL-60(TB) [12]) was -23%, the GI50 (NCI-H522 [13]; read-out: GI50) was 1030 nM and the LC50 (50% lethal concentration) (NCI-H522 [13]; read-out: LC50) was 4960 nM. The TGI (NCI-H522 [13]; read-out: TGI) was 2260 nM, the GI50 (NCI-H522 [13]; read-out: pGI50 (converted)) was 1020 nM and the LC50 (50% lethal concentration) (NCI-H522 [13]; read-out: pLC50 (converted)) was 5010 nM. The TGI (NCI-H522 [13]; read-out: pTGI (converted)) was 2240 nM, the Activity (HCC 2998) was -92% and the Activity (KM12) was -52%. The Activity (SF-539) was -4%, the GI50 (BT-549 [14]; read-out: GI50) was 1130 nM and the CC50 (BT-549 [14]; read-out: LC50 (the source's name)) was 5220 nM. The TGI (BT-549 [14]; read-out: TGI) was 2430 nM, the GI50 (BT-549 [14]; read-out: pGI50 (converted)) was 1120 nM and the CC50 (BT-549 [14]; read-out: pLC50 (the source's name) (converted)) was 5250 nM. It also gave a TGI (BT-549 [14]; read-out: pTGI (converted)) of 2450 nM, an Activity (HL-60(TB) [15]) of 92% and an Activity (HOP-62) of 105%.
